What was measured:
Type in all cases: binding
panel of 442 kinases [1] = target: T1, panel of 442 kinases (Homo sapiens, UniProt P78368); details: Compound Concentration 10 µM
T1 construct: purchased KINOMEscan
From the text: (§1) We assessed the selectivity of members of this scaffold using the KINOMEscan methodology across a near comprehensive panel of 442 kinases [[18,27]].

panel of 442 kinases [2] = target: T2, panel of 442 kinases (Homo sapiens, UniProt P11309); details: Compound Concentration 10 µM
T2 construct: purchased KINOMEscan
T2 sequence (P11309 whole entry): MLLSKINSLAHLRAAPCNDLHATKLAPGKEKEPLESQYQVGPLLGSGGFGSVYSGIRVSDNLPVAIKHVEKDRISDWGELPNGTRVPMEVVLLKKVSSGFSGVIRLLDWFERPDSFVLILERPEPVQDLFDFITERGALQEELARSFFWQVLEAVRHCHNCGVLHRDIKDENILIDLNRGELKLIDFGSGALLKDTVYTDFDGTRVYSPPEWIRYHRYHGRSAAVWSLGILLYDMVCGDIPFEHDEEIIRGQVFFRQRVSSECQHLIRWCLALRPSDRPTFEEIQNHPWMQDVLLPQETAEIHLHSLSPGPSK
From the text: as §1

panel of 442 kinases [3] = target: T3, panel of 442 kinases (Homo sapiens, UniProt Q9UK32); details: compound concentration 10 µM; for % Ctrl, RSK4(Kin.Dom.1-N-terminal): kinase RSK4(Kin.Dom.1-N-terminal); for % Ctrl, RSK4(Kin.Dom.2-C-terminal): kinase RSK4(Kin.Dom.2-C-terminal)
T3 construct: purchased KINOMEscan
T3 sequence (Q9UK32 whole entry): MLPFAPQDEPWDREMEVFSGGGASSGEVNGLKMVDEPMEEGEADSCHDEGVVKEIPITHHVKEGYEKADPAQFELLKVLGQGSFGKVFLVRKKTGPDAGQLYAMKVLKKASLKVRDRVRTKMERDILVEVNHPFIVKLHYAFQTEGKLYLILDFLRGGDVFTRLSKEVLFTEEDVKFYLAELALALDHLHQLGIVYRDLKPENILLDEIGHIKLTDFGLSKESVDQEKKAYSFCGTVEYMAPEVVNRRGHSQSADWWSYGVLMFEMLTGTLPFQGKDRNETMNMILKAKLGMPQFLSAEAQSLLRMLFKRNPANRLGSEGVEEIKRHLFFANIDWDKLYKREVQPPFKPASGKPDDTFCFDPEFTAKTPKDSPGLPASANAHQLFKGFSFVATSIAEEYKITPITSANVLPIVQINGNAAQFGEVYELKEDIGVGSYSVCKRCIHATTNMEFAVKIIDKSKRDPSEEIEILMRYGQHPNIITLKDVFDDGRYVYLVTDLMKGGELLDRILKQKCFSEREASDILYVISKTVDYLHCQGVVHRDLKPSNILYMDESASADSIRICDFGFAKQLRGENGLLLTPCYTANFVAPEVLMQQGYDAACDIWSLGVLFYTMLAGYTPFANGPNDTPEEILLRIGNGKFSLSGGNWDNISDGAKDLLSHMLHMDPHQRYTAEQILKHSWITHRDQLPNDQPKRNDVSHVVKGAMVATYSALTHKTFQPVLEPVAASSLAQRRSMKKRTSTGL
From the text: as §1

T1 sequence (P78368 whole entry): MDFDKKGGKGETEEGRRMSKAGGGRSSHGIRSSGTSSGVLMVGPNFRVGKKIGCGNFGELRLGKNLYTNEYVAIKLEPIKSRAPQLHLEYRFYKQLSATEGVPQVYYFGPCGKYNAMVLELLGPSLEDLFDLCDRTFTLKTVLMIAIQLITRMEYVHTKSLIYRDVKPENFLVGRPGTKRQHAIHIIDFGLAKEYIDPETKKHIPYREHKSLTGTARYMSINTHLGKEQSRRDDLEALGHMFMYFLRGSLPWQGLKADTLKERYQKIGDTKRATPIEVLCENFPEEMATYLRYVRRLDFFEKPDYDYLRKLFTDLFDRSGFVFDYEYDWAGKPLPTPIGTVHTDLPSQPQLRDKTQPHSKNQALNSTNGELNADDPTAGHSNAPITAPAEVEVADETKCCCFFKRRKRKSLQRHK

Structure (SMILES): COc1cc(C(=O)N2CCC(N3CCN(C)CC3)CC2)ccc1Nc1ncc2c(n1)N(C1CCCC1)c1ccccc1C(=O)N2C [Compound 25, 11-cyclopentyl-2-((2-methoxy-4-(4-(4-methylpiperazin-1-yl)piperidine-1-carbonyl)phenyl)amino)-5-methyl-5H-benzo[e]pyrimido[5,4-b][1,4]diazepin-6(11H)-one]
- KINOMEscan: CSNK1G2 (panel of 442 kinases [1]): 91
- KINOMEscan: PIM1 (panel of 442 kinases [2]): 97
- % Ctrl, RSK4(Kin.Dom.1-N-terminal) (panel of 442 kinases [3]): 100 % Ctrl
- % Ctrl, RSK4(Kin.Dom.2-C-terminal) (panel of 442 kinases [3]): 93 % Ctrl

Structure (SMILES): CCOc1cc(C(=O)N2CCC(N3CCN(C)CC3)CC2)ccc1Nc1ncc2c(n1)N(C1CCCC1)c1ccccc1C(=O)N2C [Compound 26]
- KINOMEscan: CSNK1G2 (panel of 442 kinases [1]): 96
- KINOMEscan: PIM1 (panel of 442 kinases [2]): 100
- % Ctrl, RSK4(Kin.Dom.1-N-terminal) (panel of 442 kinases [3]): 100 % Ctrl
- % Ctrl, RSK4(Kin.Dom.2-C-terminal) (panel of 442 kinases [3]): 98 % Ctrl

Structure (SMILES): COc1cc(C(=O)N2CCC(N3CCN(C)CC3)CC2)ccc1Nc1ncc2c(n1)N1CCc3cccc(c31)C(=O)N2C [Compound 24]
- % Ctrl, RSK4(Kin.Dom.1-N-terminal) (panel of 442 kinases [3]): 100 % Ctrl
- % Ctrl, RSK4(Kin.Dom.2-C-terminal) (panel of 442 kinases [3]): 5.2 % Ctrl

Structure (SMILES): COc1cc(C(=O)N2CCC(N3CCN(C)CC3)CC2)ccc1Nc1ncc2c(n1)N(C)c1ccccc1C(=O)N2C [15 (LRRK2-IN-1)]
- KINOMEscan: CSNK1G2 (panel of 442 kinases [1]): 100
- KINOMEscan: PIM1 (panel of 442 kinases [2]): 100
- % Ctrl, RSK4(Kin.Dom.1-N-terminal) (panel of 442 kinases [3]): 92 % Ctrl
- % Ctrl, RSK4(Kin.Dom.2-C-terminal) (panel of 442 kinases [3]): 2.2 % Ctrl

— publication PMC3914206
